What all share (type): physicochemical
A short description of data set [1]: Solubility of polymorphs I and II in water. Conditions: for Solubility in water: at 20° C. in water.
The nature of data set [2]: Stability on storage under ICH conditions. The text has this:
Three batches of monohydrate I and one batch of monohydrate II were stored under ICH conditions. […] No decomposition products were observed, and no other parameters of the specification were changed substantially. On storage, the batches maintained their solid state.

The nature of data set [3]: Dissolution of the active compound during preparation of the pharmaceutical. The protocol:
Differences between the two monohydrates I and II were observed during dissolution of the active compound. In general, the time required to get monohydrate I into solution is 45 minutes at 40-50° C.

[4] abbreviates: 6 months at 40° C./75% relative atmospheric humidity.
[5] abbreviates: 36 months at 25° C./60% relative atmospheric humidity.
[6] abbreviates: 36 months at 30° C./75% relative atmospheric humidity.

Data on three molecules can be found in US10072027B2, “Preparation of high-purity gadobutrol” (BAYER INTELLECTUAL PROPERTY GMBH, priority 2011, dated 2018).

For the molecule `O=C([O-])CN1CCN(CC(=O)[O-])CCN(C(CO)C(O)CO)CCN(CC(=O)[O-])CC1.[Gd+3]` (centres unmarked) [gadobutrol, Gd complex of N-(1-hydroxymethyl-2,3-dihydroxypropyl)-1,4,7-triscarboxymethyl-1,4,7,10-tetraazacyclododecane], the “Solubility in water (in words)” value in data set [1] (water) is “soluble in water in almost any ratio”.

For the molecule `O.O=C([O-])CN1CCN(CC(=O)[O-])CCN([C@H](CO)[C@H](O)CO)CCN(CC(=O)[O-])CC1.[Gd+3]` [monohydrate II], in data set [1], the Solubility in water is 922 ± 9 mg/mL. Besides, the Stability on storage result in data set [2] (setting [4]), in data set [2] (setting [5]) and in data set [2] (setting [6]) was “remained unchanged” each time. Besides, in data set [3] (45 minutes at 40-50° C.), the “dissolution state during the time monohydrate I needs” value is “incompletely dissolved”.

For the molecule `O.O=C([O-])CN1CCN(CC(=O)[O-])CCN([C@H](CO)[C@H](O)CO)CCN(CC(=O)[O-])CC1.[Gd+3]` [monohydrate I], the Solubility in water in data set [1] worked out at 1081 ± 2 mg/mL. The Stability on storage result in data set [2] (setting [4]), in data set [2] (setting [5]) and in data set [2] (setting [6]) was “remained unchanged” each time. The “time required to get into solution” value in data set [3] (at 40-50° C.) stood at 45 min.
